Measured values reported in publication PMC6454048, “Identification of Cbp1, a c-di-GMP Binding Chemoreceptor in Azorhizobium caulinodans ORS571 Involved in Chemotaxis and Nodulation of the Host Plant” (Frontiers in Microbiology, 2019).

Target: T1, Cbp1 (c-di-GMP binding protein 1; PilZ domain containing chemoreceptor) (Azorhizobium caulinodans, UniProt A8II15)
T1 construct: gene AZC_3349; Cbp1 ORF with C-terminal 6×His tag, expressed in E. coli Top10
Assay: ITC ([…] protein titrated with […] c-di-GMP); also protein thermal shift assay

T1 sequence (A8II15 1-581): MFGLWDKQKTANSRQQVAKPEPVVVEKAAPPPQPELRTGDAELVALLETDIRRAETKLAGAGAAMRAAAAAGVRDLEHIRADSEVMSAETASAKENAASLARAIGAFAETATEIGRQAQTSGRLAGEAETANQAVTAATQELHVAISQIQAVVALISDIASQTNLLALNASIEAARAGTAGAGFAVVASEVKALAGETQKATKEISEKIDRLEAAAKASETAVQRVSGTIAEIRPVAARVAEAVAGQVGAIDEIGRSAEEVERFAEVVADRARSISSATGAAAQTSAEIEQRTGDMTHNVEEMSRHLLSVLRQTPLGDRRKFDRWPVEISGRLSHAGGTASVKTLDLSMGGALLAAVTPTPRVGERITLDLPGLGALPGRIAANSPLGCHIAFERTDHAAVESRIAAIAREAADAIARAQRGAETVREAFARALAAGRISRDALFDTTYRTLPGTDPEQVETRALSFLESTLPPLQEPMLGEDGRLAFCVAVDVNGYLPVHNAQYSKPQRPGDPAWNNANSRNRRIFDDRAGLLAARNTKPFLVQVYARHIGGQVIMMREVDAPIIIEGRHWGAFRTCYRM

Nc1nc2c(ncn2[C@@H]2O[C@@H]3CO[P@](=O)(O)O[C@H]4[C@@H](O)[C@H](n5cnc6c(=O)[nH]c(N)nc65)O[C@@H]4CO[P@](=O)(O)O[C@H]3[C@H]2O)c(=O)[nH]1 [c-di-GMP]
Kd: 14.9 ± 1.6 µM
